Source: patent publication US20060004028A1, “Novel PARP inhibitor” (MOCHIDA PHARMACEUTICAL CO., LTD., priority 2002, published 2006)

Assays:
PARP = biological target: T1, PARP (Homo sapiens, UniProt P09874); assay: Measurement of PARP inhibitory activity (PARP Inhibition Assay kit, ADP-ribosylated histone); type: biochemical; details: HSA PARP Enzyme, histone-coated plate, absorbance at 450 nm
T1 construct: purchased Travigen (Trevigen) 4669-96-K
Protocol: PARP activity is determined by measuring the amount of ADP-ribosylated histone protein applied onto an assay plate according to the manual of a measurement kit “PARP Inhibition Assay” (produced by Travigen, catalog number: 4669-96-K). Specifically, 25 μL/well of “2×PARP cocktail” (containing 800 μM of NAD, 50 μM of biotinylated NAD, and denatured DNA) was added to each well of assay plates (96-well multiplate) previously coated with histone protein. Further added was 12.5 μL/well of test compound diluted with “PARP Buffer” (50 mM Tris-hydrochloric acid buffer (pH 8.0) containing 25 mM of MgCl2) and 12.5 μL/well (final concentration: 0.3 unit/50 μL/well) of “HSA PARP Enzyme” diluted with “PARP Buffer” in that order. The mixture was allowed to react at room temperature for 30 minutes. Enzyme reaction of PARP was suspended by discarding the reaction solution and rinsing with a phosphate buffer. Then, 50 μL/well of “Strep-HRP” (streptavidin-labeled horseradish peroxidase) was added and allowed to react at 37° C. for 20 to 30 minutes to bind to biotin-labeled ADP-ribosylated histone. After the reaction solution was discarded, resultings were rinsed with a phosphate buffer, and 50 μL/well of calorimetric substrate TACS-Sapphire was added to the mixture to react at room temperature for 5 to 10 minutes in the dark.
The reaction was terminated by adding 50 μL/well of 0.2 N hydrochloric acid solution, and the absorbance at 450 nm was measured with a microplate reader.

T1 sequence (P09874 whole entry): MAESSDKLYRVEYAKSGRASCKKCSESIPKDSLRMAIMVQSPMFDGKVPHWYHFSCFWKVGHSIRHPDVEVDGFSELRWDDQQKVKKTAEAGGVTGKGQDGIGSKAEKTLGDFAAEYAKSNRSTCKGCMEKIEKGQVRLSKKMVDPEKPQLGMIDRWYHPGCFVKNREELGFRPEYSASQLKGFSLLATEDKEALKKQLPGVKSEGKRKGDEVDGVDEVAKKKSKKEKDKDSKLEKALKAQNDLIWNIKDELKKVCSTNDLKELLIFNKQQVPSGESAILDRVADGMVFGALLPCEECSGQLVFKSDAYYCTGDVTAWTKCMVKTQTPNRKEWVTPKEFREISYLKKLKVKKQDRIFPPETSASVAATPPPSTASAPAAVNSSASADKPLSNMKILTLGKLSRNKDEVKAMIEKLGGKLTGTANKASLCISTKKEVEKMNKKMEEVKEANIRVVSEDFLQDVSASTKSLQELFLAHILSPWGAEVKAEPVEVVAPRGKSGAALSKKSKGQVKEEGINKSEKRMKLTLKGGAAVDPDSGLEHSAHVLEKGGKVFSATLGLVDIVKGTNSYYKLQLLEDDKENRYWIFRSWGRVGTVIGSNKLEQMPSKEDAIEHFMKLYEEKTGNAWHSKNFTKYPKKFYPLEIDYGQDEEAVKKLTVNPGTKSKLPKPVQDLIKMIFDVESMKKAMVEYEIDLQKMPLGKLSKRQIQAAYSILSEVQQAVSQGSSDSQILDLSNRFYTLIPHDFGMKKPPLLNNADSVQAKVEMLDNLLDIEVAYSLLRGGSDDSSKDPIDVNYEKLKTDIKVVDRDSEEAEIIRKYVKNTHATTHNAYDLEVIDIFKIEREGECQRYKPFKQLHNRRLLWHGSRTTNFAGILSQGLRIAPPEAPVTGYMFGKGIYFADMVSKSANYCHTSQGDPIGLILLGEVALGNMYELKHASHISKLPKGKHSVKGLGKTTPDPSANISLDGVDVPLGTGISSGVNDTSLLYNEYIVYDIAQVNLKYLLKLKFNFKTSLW

| Compound | IC50 (PARP) | melting point |
| --- | --- | --- |
| N[C@H]1CCN2c3c(cccc31)C(=O)N[C@@H]2c1cccnc1 (racemic) [Example 100, Mixture of (3S,7S)-7-amino-3-(3-pyridyl)-6,7-dihydro-3H,5H-pyrido[3,2,1-ij]quinazoline-1(2H)-one and (3R,7R)-7-amino-3-(3-pyridyl)-6,7-dihydro-3H,5H-pyrido[3,2,1-ij]quinazoline-1(2H)-one] | 0.17 µM | 127 to 131.2 °C |
| COc1cc(C2NC(=O)c3cccc4c3N2CCC4=O)ccc1F (centres unmarked) [Example 36, 3-(4-fluoro-3-methoxyphenyl)-6,7-dihydro-3H,5H-pyrido[3,2,1-ij]quinazoline-1,7(2H)-dione] |  | 171 to 172.9 °C |
| COc1ccc([C@@H]2NC(=O)c3cccc4c3N2CC[C@H]4N)cc1 [Example 7, (+)-(3R,7R)-7-amino-3-(4-methoxyphenyl)-6,7-dihydro-3H,5H-pyrido-[3,2,1-ij]quinazoline-1(2H)-one] |  | 110 to 112.7 °C |
| COc1ccc(C2NC(=O)c3cccc4c3N2CCC4NC(=O)CN(C)C)cc1 (centres unmarked) [Example 136, 7-(N,N-dimethylaminoacetyl)amino-3-(4-methoxyphenyl)-6,7-dihydro-3H,5H-pyrido[3,2,1-ij]quinazoline-1(2H)-one] |  | 161.4 to 166.6 °C |
| CON=C1CCN2c3c(cccc31)C(=O)NC2c1ccc(-n2ccnc2)cc1 (centres unmarked) [Example 58, 3-[4-(imidazole-1-yl)phenyl]-7-methoxyimino-6,7-dihydro-3H,5H-pyrido[3,2,1-ij]quinazoline-1(2H)-one] |  | 246.3 °C (dec.) |
| COc1ccc(C2NC(=O)c3cc(F)cc4c3N2CCC4=O)cc1 (centres unmarked) [Example 24, 9-fluoro-3-(4-methoxyphenyl)-6,7-dihydro-3H,5H-pyrido[3,2,1-ij]quinazoline-1,7(2H)-dione] |  | 164.7 to 166 °C |
| CON=C1CCN2c3c(cc(F)cc31)C(=O)NC2c1ccc(OC)cc1 (centres unmarked) [Example 51, 9-fluoro-7-methoxyimino-3-(4-methoxyphenyl)-6,7-dihydro-3H,5H-pyrido[3,2,1-ij]quinazoline-1(2H)-one] |  | 200.1 to 202.9 °C |
| Cc1ccc(C2NC(=O)c3cccc4c3N2CCC4=O)cc1 (centres unmarked) [Example 18, 3-(4-methylphenyl)-6,7-dihydro-3H,5H-pyrido[3,2,1-ij]quinazoline-1,7(2H)-dione] |  | 172.1 to 175.8 °C |
| COc1ccc([C@H]2NC(=O)c3cccc4c3N2CC[C@@H]4N)cc1F (racemic) [Example 99, Mixture of (3S,7S)-7-amino-3-(3-fluoro-4-methoxyphenyl)-6,7-dihydro-3H,5H-pyrido[3,2,1-ij]quinazoline-1(2H)-one and (3R,7R)-7-amino-3-(3-fluoro-4-methoxyphenyl)-6,7-dihydro-3H,5H-pyrido[3,2,1-ij]quinazoline-1(2H)-one] | 0.042 µM | 128.5 to 137.4 °C |
| COc1cccc(C2NC(=O)c3cccc4c3N2CCC4=O)c1 (centres unmarked) [Example 44, 3-(3-methoxyphenyl)-6,7-dihydro-3H,5H-pyrido[3,2,1-ij]quinazoline-1,7(2H)-dione] |  | 126.5 to 142.5 °C |
| O=C1CCN2c3c1cccc3C(=O)NC2c1ccc(Br)cc1 (centres unmarked) [Example 21, 3-(4-bromophenyl)-6,7-dihydro-3H,5H-pyrido[3,2,1-ij]quinazoline-1,7(2H)-dione] |  | 206.2 to 214 °C |
| CN(C)c1ccc([C@@H]2NC(=O)c3cccc4c3N2CC[C@@H]4N)cc1 (racemic) [Example 129, Mixture of (3R,7S)-7-amino-3-(4-N,N-dimethylaminophenyl)-6,7-dihydro-3H,5H-pyrido[3,2,1-ij]quinazoline-1(2H)-one and (3S,7R)-7-amino-3-(4-N,N-dimethylaminophenyl)-6,7-dihydro-3H,5H-pyrido[3,2,1-ij]quinazoline-1(2H)-one] | 0.049 µM | 237.8 to 239.7 °C |
| O=C1NC(c2ccc(Br)cc2)N2CCC(=NO)c3cccc1c32 (centres unmarked) [Example 79, 3-(4-bromophenyl)-7-hydroxyimino-6,7-dihydro-3H,5H-pyrido[3,2,1-ij]quinazoline-1(2H)-one] |  | 230 to 236.9 °C |
| CON=C1CCN2c3c(cccc31)C(=O)NC2Cc1ccc(OC)cc1 (centres unmarked) [Example 69, 7-methoxyimino-3-(4-methoxyphenyl)methyl-6,7-dihydro-3H,5H-pyrido[3,2,1-ij]quinazoline-1(2H)-one] |  | 190 to 195.9 °C |
| COc1ccc(C2NC(=O)c3cccc4c3N2CCC4=O)c(C)c1 (centres unmarked) [Example 49, 3-(2-methyl-4-methoxyphenyl)-6,7-dihydro-3H,5H-pyrido[3,2,1-ij]quinazoline-1,7(2H)-dione] |  | 100.2 to 101.1 °C |
| Mixture of (3S,7S)-7-amino-3-(3,4-difluorophenyl)-6,7-dihydro-3H,5H-pyrido[3,2,1-ij]quinazoline-1(2H)-one and (3R,7R)-7-amino-3-(3,4-difluorophenyl)-6,7-dihydro-3H,5H-pyrido[3,2,1-ij]quinazoline-1(2H)-one [Example 122] | 0.12 µM |  |
| COc1cc(C2NC(=O)c3cccc4c3N2CCC4=NO)ccc1F (centres unmarked) [Example 63, 3-(4-fluoro-3-methoxyphenyl)-7-hydroxyimino-6,7-dihydro-3H,5H-pyrido[3,2,1-ij]quinazoline-1(2H)-one] |  | 245.4 to 246.6 °C |
| O=C(O)c1ccc(C2NC(=O)c3cccc4c3N2CCC4=O)cc1 (centres unmarked) [Example 22, 3-(4-carboxyphenyl)-6,7-dihydro-3H,5H-pyrido[3,2,1-ij]quinazoline-1,7(2H)-dione] |  | 154.3 to 158.9 °C |

Other lines, results leading:

| IC50 (PARP) | melting point | Compound |
| --- | --- | --- |
|  | 214.7 to 219.5 °C | COc1ccccc1C1NC(=O)c2cccc3c2N1CCC3=O (centres unmarked) [Example 43, 3-(2-methoxyphenyl)-6,7-dihydro-3H,5H-pyrido[3,2,1-ij]quinazoline-1,7(2H)-dione] |
|  | 198.7 to 202.6 °C | CN(C)c1ccc(C2NC(=O)c3cccc4c3N2CCC4=O)cc1 (centres unmarked) [Example 48, 3-(4-N,N-dimethylaminophenyl)-6,7-dihydro-3H,5H-pyrido[3,2,1-ij]quinazoline-1,7(2H)-dione] |
| 0.006 µM | 96.8 to 97.6 °C | N[C@H]1CCN2c3c(cccc31)C(=O)N[C@@H]2c1ccc(OCCO)cc1 (racemic) [Example 93, Mixture of (3S,7S)-7-amino-3-(4-hydroxyethoxyphenyl)-6,7-dihydro-3H,5H-pyrido[3,2,1-ij]quinazoline-1(2H)-one and (3R,7R)-7-amino-3-(4-hydroxyethoxyphenyl)-6,7-dihydro-3H,5H-pyrido[3,2,1-ij]quinazoline-1(2H)-one] |
|  | 216 to 224.8 °C | O=C1CCN2c3c1cccc3C(=O)NC2c1ccc(F)cc1 (centres unmarked) [Example 19, 3-(4-fluorophenyl)-6,7-dihydro-3H,5H-pyrido[3,2,1-ij]quinazoline-1,7(2H)-dione] |
|  | 137.4 to 144.2 °C | COc1ccc(C2NC(=O)c3cccc4c3N2CCC4=O)cc1 (centres unmarked) [Example 1, 3-(4-methoxyphenyl)-6,7-dihydro-3H,5H-pyrido[3,2,1-ij]quinazoline-1,7(2H)-dione] |
|  | 218.7 to 221.7 °C | CON=C1CCN2c3c(cccc31)C(=O)NC2c1ccc(OC)c(Br)c1 (centres unmarked) [Example 54, (3-bromo-4-methoxyphenyl)-7-methoxyimino-6,7-dihydro-3H,5H-pyrido[3,2,1-ij]quinazoline-1(2H)-one] |
|  | 132.9 to 133.4 °C | COc1ccc(C2NC(=O)c3ccc(Cl)c4c3N2CCC4=NO)cc1 (centres unmarked) [Example 52, 8-chloro-7-hydroxyimino-3-(4-methoxyphenyl)-6,7-dihydro-3H,5H-pyrido[3,2,1-ij]quinazoline-1(2H)-one] |
|  | 143.3 to 154.6 °C | COc1ccc(C2NC(=O)c3cccc4c3N2CCC4)cc1 (centres unmarked) [Example 103, 3-(4-methoxyphenyl)-6,7-dihydro-3H,5H-pyrido[3,2,1-ij]quinazoline-1(2H)-one] |
|  | 164.3 to 167 °C | CON=C1CCN2c3c(cccc31)C(=O)NC2c1ccc(OCCCN(C)C)cc1 (centres unmarked) [Example 53, 7-methoxyimino-3-[4-(3-N,N-dimethylaminopropoxy)phenyl]-6,7-dihydro-3H,5H-pyrido[3,2,1-ij]quinazoline-1(2H)-one] |
|  | 81.4 to 82 °C | COc1ccc(Cc2nc(=O)c3cccc4c3n2CCC4=O)cc1 [Example 41, 3-(4-methoxyphenyl)methyl-6,7-dihydro-5H-pyrido[3,2,1-ij]quinazoline-1,7-dione] |
|  | 252.3 to 253.1 °C | COc1ccc(C2NC(=O)c3cccc4c3N2CCC4NC(=O)C2CCN(C)CC2)cc1 (centres unmarked) [Example 134, 7-(1-methylpiperidine-4-yl)carbonylamino-3-(4-methoxy-phenyl)-6,7-dihydro-3H,5H-pyrido[3,2,1-ij]quinazoline-1(2H)-one] |
|  | 172.1 to 180.4 °C | O=C1CCN2c3c1cccc3C(=O)NC2c1ccccc1 (centres unmarked) [Example 15, 3-(phenyl)-6,7-dihydro-3H,5H-pyrido[3,2,1-ij]quinazoline-1,7(2H)-dione] |
|  | 199.4 to 207.2 °C | CON=C1CCN2c3c(cccc31)C(=O)NC2c1ccc(C(F)(F)F)cc1 (centres unmarked) [Example 62, 7-methoxyimino-3-(4-trifluoromethylphenyl)-6,7-dihydro-3H,5H-pyrido[3,2,1-ij]quinazoline-1(2H)-one] |
